Data set [1] is described as follows: Stability of selected EB3 inhibitors in human blood plasma. Type of data set: in vitro ADME. How it is done:
Supplementary Table 3. Stability of selected EB3 inhibitors in human blood plasma. The indicated inhibitors were incubated with human plasma at 37 °C and samples were taken at the indicated time points. Plasma proteins were precipitated with ice-cold perchloric acid (60%); the concentration of compounds was measured in supernatant using a liquid chromatography-tandem mass spectrometry (LC-MS/MS). See also Figures 1 and 2.

In data set [2] the test system is human primary microvascular lung endothelial cells (HLMVECs). Put plainly: Peptide uptake in endothelial cells. Type of data set: cell-based. How it is done: We next analyzed the cell-penetrating properties of the selected compounds, hereafter referred to as vascular therapeutics (VT). The rate of uptake of 5’6-FAM (fluorescein)-labeled compounds by human primary microvascular lung endothelial cells (HLMVECs) was determined via confocal fluorescence live-cell imaging. FAM-labeled Myr-EBIN[13] and fluorescein alone were used as positive and negative controls, respectively. The t½ uptake and maximal uptake were determined from changes in the integrated fluorescence intensity over a 30 min period (Fig. 2a and Supplementary Fig. 1a). […] Like Myr-EBIN, compounds VT-107, -108 and -109 presented the highest uptake rates of 92.5 ± 5.0%, 82.5 ± 2.8% and 94.7 ± 4.9%, respectively, whereas the linear compound VT-101 was taken up less efficiently, with an average uptake of 58.4 ± 2.7% (Fig. 2a). […] The t½ uptake, however, varied between the tested compounds (Fig. 2b). The stapled compounds presented the shortest t½ uptake, whereas the linear compounds presented the longest t½ (Fig. 2b).
Peptide uptake in endothelial cells. The rate of peptide uptake by primary human microvascular endothelial cells was measured using 5’6FAM (fluorescein)-labeled peptides and confocal fluorescence live-cell imaging, with fluorescein alone used as a negative control. Changes in intracellular fluorescence for each peptide were monitored over time, and saponin, a detergent, was added at the end of the experiment to induce full uptake of the tested peptides by endothelial cells. The fluorescence intensity inside the cells was tracked over time, and the half-time uptake (t1/2) and maximum uptake were calculated.

The nature of data set [3]: Aggregation / solubility at 1 mM. The format is physicochemical. To be noted: summary calls it solubility at 1mM. How it is done:
(§1) The solubilities of the synthesized compounds were determined experimentally (Supplementary Table 2). Most compounds were highly soluble at a 1 mM concentration; however, some compounds tended to form aggregates. These compounds were excluded from further studies. In addition, we experimentally determined the lipophilicity of each compound, logP(oct/wat)=log(soluteoct/solutewat ), which is the partition coefficient of a compound between aqueous (water) and lipophilic (octanol) phases (Supplementary Table 2).

The target in data set [4] is EB3 interactions with IP3R3-GFP (Homo sapiens, UniProt Q9UPY8). Put plainly: Competitive binding: inhibition of EB3 interaction with IP3R3-GFP in vitro. To be noted: 250 nM. Type of data set: biochemical. From the text: We tested the efficacy of twenty-three compounds in inhibiting EB3 interactions with IP3R3-GFP via an in vitro approach developed by us[12],[13]. […] Guided by NMR studies, we predicted the binding pose of 109 to EB3 via AutoDock Vina[13],[24],[25].
Chain of EB3 interactions with IP3R3-GFP (Q9UPY8 whole entry): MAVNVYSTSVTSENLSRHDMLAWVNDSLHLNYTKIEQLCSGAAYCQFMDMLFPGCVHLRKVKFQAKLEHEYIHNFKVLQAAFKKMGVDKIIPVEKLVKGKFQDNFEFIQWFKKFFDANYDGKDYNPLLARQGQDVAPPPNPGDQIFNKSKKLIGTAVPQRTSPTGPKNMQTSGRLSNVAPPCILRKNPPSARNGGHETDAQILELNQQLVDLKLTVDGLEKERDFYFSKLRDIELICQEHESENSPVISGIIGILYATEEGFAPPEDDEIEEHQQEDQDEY

Data set [5] is described as follows: Lipophilicity of peptides, logP(oct/wat). The format is physicochemical. How it is done: as §1
Lipophilicity of peptides. Two separate solutions were obtained: an aqueous phosphate buffer with saturated n-octanol, and an n-octanol solution with saturated phosphate buffer. Peptides were then dissolved and diluted in the phosphate buffer. Different partitions were then made with different n-octanol to water ratio before shaking for an hour at room temperature. The aqueous phase and n-octanol were allowed to equilibrate, and each phase was extracted and analyzed for peptide concentrations. The ratio of peptide concentration in n-octanol to that in water is expressed as log(P).

Data set [6] is described as follows: Stability at various storage conditions. Type of data set: physicochemical. To be noted: for amount of peptide remaining after storage: phosphate-buffered sterile saline, 8 days, LC-MS/MS. How it is done:
Stability assay of peptides in various storage conditions. Peptides were dissolved and stored in phosphate-buffered sterile saline at -20, 4, 37, and 60°C for 8 days. The amount of peptide remaining after the study was analyzed by LC-MS/MS.
Supplementary Table 5. Stability of selected compounds at various storage conditions. Preliminary accelerated storage stability at various temperature conditions for the selected inhibitors was tested in phosphate-buffered sterile saline at -20 °C, 4 °C, 37 °C and 60 °C for 8 days. See also Figures 1 and 2.

Read-outs that look alike come from different tables or passages of the source. Starred links: 1 amine or outer side, 2 acyl side, 3 side chain; linkers in the order of their positions; H or OH if unused. Positions of bridges follow the written chain, without caps; N, C: chain ends. Non-standard residues stand in square brackets, D forms with d. Residues, ends and D or L forms follow the SMILES beside them. *: point of attachment. Leu(4,5-dehydro) = C=C(C)C[C@H](N)C(=O)O; Oic = O=C(O)[C@@H]1C[C@@H]2CCCC[C@@H]2N1; d(tBuAla) = CC(C)(C)C[C@@H](N)C(=O)O; dVal(3-OH) = CC(C)(O)[C@@H](N)C(=O)O; tBuAla = CC(C)(C)C[C@H](N)C(=O)O; Myristoyl = CCCCCCCCCCCCCC(=O)*; R5 = C=CCCC[C@@](C)(N)C(=O)O; S5 = C=CCCC[C@](C)(N)C(=O)O; X1 = O=C(CC(O)CN[*:1])[*:2]; 4Amb = NCc1ccc(C(=O)O)cc1; X3 = NCC(O)CC(=O)*

Usually inhibition stands for the share of the control response that was lost under treatment.

On to `CC(C)(C)C[C@H](NC(=O)CC(O)CNC(=O)[C@@H]1C[C@@H]2CCCC[C@@H]2N1C(=O)[C@H](CC(C)(C)C)NC(=O)c1ccc(CNC(=O)[C@H](NC(=O)[C@H](N)Cc2ccccc2)C(C)(C)O)cc1)C(=O)O` (stereo partly drawn) [compound 101, (2S)-2-(4-((2S,3aS,7aS)-1-((S)-2-(4-(((R)-2-((R)-2-amino-3-phenylpropanamido)-3-hydroxy-3-methylbutanamido)methyl)benzamido)-4,4-dimethylpentanoyl)octahydro-1H-indole-2-carboxamido)-3-hydroxybutanamido)-4,4-dimethylpentanoic acid.] (H-[dF][dVal(3-OH)][4Amb][tBuAla][Oic][X1][tBuAla]-OH), for which, in data set [1] (human, plasma), the amount remaining at 1.5 h was 87% and the amount remaining at 20 h is 85%. In addition, in data set [2], the “half-time uptake t1/2” value came out at 9.58 ± 0.09 min and the “penetration of the cell membrane” value is reported as “able to penetrate the cell membrane without the addition of a cell internalization signal”. For the same compound, in data set [3], the “Aggregation at 1mM” value is on record as “weak signal”. Moreover, at 0.25 µM the inhibition in data set [4] was 41%. Besides, the logD in data set [5] was 0.52. Further, the storage stability entry in data set [6] was “stable”.
For `CCCCCCCCCCCCCC(=O)N[C@@H](Cc1ccccc1)C(=O)N[C@H](C(=O)N[C@@H](CCC(=O)O)C(=O)N[C@H](C(=O)N1CCC[C@H]1C(=O)N[C@H](C(=O)N[C@H](C(=O)O)[C@@H](C)CC)[C@@H](C)O)[C@@H](C)CC)[C@@H](C)O` [Myr-EBIN, reference compound] (Myristoyl-FTEIPTI-OH), in data set [1] (human, plasma), the share remaining at 1.5 h stood at 105% and the amount remaining at 20 h is 53%.
In the case of `C=C(C)C[C@@H]1NC(=O)[C@](C)(NC(=O)c2ccc(CNC(=O)CC(O)CN)cc2)CCC/C=C\CCC[C@@](C)(C(=O)N[C@H](CC(C)(C)C)C(=O)O)NC(=O)CC(O)CNC(=O)[C@@H]2C[C@@H]3CCCC[C@@H]3N2C1=O` (stereo partly drawn) [compound 107, (2R)-2-((8S,17R,20S,22aS,26aS,27aS,Z)-17-(4-((4-amino-3-hydroxybutanamido)methyl)benzamido)-4-hydroxy-8,17-dimethyl-20-(2-methylallyl)-1,6,18,21-tetraoxo 2,3,4,5,6,7,8,9,10,11,14,15,16,17,18,19,20,21,22a,23,24,25,26,26a,27,27a-hexacosahydro-1H-[1,4,7,12]tetraazacyclotricosino[4,5-a]indole-8-carboxamido)-4,4-dimethylpentanoic acid] ({X3-4Amb}-[R5][Leu(4,5-dehydro)][Oic][X1][S5][d(tBuAla)]-OH; staple (Z) 1-5), in data set [1] (human plasma, 37 °C, 1.5 hr, perchloric acid (60%) precipitation, LC-MS/MS, read-out: compound remaining in human plasma), the fraction remaining at 1.5 h worked out at 87%. Besides, the amount remaining at 20 h in data set [1] (human plasma, 37 °C, 20 hr, perchloric acid (60%) precipitation, LC-MS/MS, read-out: compound remaining in human plasma) stood at 65%. In addition, the “uptake, percentage of the maximal values obtained following saponin treatment” value in data set [2] (5’6-FAM-labeled compounds, HLMVECs, confocal live-cell imaging over 30 min, mean ± SEM, n = 16–45 cells per group) was determined as 92.5 ± 5.0%. In addition, the “half-time uptake t1/2” value in data set [2] (5’6-FAM-labeled compounds, HLMVECs, confocal live-cell imaging, n = 3 independent experiments) was found to be 0.21 ± 0.40 min. In addition, in data set [2] (5’6-FAM-labeled compounds, HLMVECs, no cell internalization signal), the “penetration of the cell membrane” value was “able to penetrate the cell membrane without the addition of a cell internalization signal”. Also, in data set [3], the “Aggregation at 1mM” value is “weak signal”. Also, testing at 0.25 µM in data set [4] gave an inhibition of 65%. In addition, the logD in data set [5] (shake-flask n-octanol/phosphate buffer, mutually saturated, shaken 1 hour at room temperature, read-out: Log P (Octanol/Water)) was found to be 0.51. Moreover, the “amount of peptide remaining after storage” value in data set [6] (4 °C) came out at 88%; in data set [6] (37 °C), 85%; in data set [6] (60 °C), 85%; in data set [6] (-20 °C), 94%.

Source of the values: paper PMC12627862, “Therapeutic targeting of endothelial calcium signaling accelerates the resolution of lung injury” (Signal Transduction and Targeted Therapy, 2025).
